Data taken from patent US9517245B2, “Sorafenib-microRNA combination therapy for liver cancer” (Mirna Therapeutics, Inc., priority 2014, dated 2016).
pIC50: −log10 of the molar value. Read-outs that look alike come from different tables or passages of the source.

What was measured:
[1] = system: four liver cancer cell lines (Hep3b, HepG2, C3A, Huh7); test: combination studies in four liver cancer cell lines (overall synergy statements); assay type: cell-based; conditions: combination with miRNA mimic instead of sorafenib; data not shown
[2] = cited from earlier work
[3] = system: C3A liver cancer cells; test: sorafenib dose-effect, AlamarBlue cell proliferation; assay type: cell-based; conditions: 72 h, AlamarBlue 3 days post drug treatment, range from two or three experiments
Description: (§1) FIG. 2 illustrates dose-effect curves of sorafenib in liver cancer cells. Cells were seed in 96-well plate at 2000 cells per well. Three days after seeding the cells, sorafenib in a serial dilution from (0.1-100 μM) was added to the medium. Cell proliferation or percent inhibition was determined by AlamarBlue 3 days post drug treatment. Data were normalized to cells treated with sorafenib solvent (1% DMSO final concentration).
(§2) Sorafenib dose response curves were established in each cell line, and the cell proliferation was determined using AlamarBlue (Invitrogen) 3 days post drug treatment. Nonlinear regression and IC50 values were calculated using the GraphPad (Prism) software.
as §1, with “treatment, and IC50 values” for “treatment. Data”, “calculated using the GraphPad software.” for “normalized to cells treated with sorafenib solvent (1% DMSO final concentration).”

[4] = system: Hep3b liver cancer cells; test: as above; assay type: cell-based; conditions: Homo sapiens, 72 h, AlamarBlue 3 days post drug treatment, range from two or three experiments
Description: as §1, §2
as §1, with “treatment, and IC50 values” for “treatment. Data”, “calculated using the GraphPad software.” for “normalized to cells treated with sorafenib solvent (1% DMSO final concentration).”

[5] = system: Huh7 liver cancer cells; test: as above; assay type: cell-based; conditions: Homo sapiens, Huh-7, 72 h, AlamarBlue 3 days post drug treatment, range from two or three experiments
Description: as §1, §2
as §1, with “treatment, and IC50 values” for “treatment. Data”, “calculated using the GraphPad software.” for “normalized to cells treated with sorafenib solvent (1% DMSO final concentration).”

[6] = system: HepG2 liver cancer cells; test: as above; assay type: cell-based; conditions: Homo sapiens, 72 h, AlamarBlue 3 days post drug treatment, range from two or three experiments
Description: as §1, §2
as §1, with “treatment, and IC50 values” for “treatment. Data”, “calculated using the GraphPad software.” for “normalized to cells treated with sorafenib solvent (1% DMSO final concentration).”

Structure (SMILES): O=c1[nH]cc(F)c(=O)[nH]1 [5-FU]
- synergy in combinations with other chemotherapeutic agents [1]: synergy was not identified

Structure (SMILES): CNC(=O)c1cc(Oc2ccc(NC(=O)Nc3ccc(Cl)c(C(F)(F)F)c3)cc2)ccn1.Cc1ccc(S(=O)(=O)O)cc1 [Sorafenib tosylate, 4-(4-{3-[4-Chloro-3 (trifluoromethyl)phenyl]ureido}phenoxy) N-methylpyridine-2-carboxamide 4-methylbenzenesulfonate]
- solubility ([2]; PEG 400): soluble
- solubility ([2]; aqueous media): practically insoluble
- solubility ([2]; ethanol): slightly soluble

Structure (SMILES): CNC(=O)c1cc(Oc2ccc(NC(=O)Nc3ccc(Cl)c(C(F)(F)F)c3)cc2)ccn1 [Sorafenib]
- pIC50 [3]: 4.93 to 4.97
- pIC50 [4]: 4.90 to 5.27
- pIC50 [5]: 4.80 to 4.88
- pIC50 [6]: 5.05 to 5.17

Structure (SMILES): COc1cccc2c1C(=O)c1c(O)c3c(c(O)c1C2=O)C[C@@](O)(C(=O)CO)C[C@@H]3O[C@H]1C[C@H](N)[C@H](O)[C@H](C)O1 [doxorubicin]
- synergy in combinations with other chemotherapeutic agents [1]: synergy was not identified
